Experimental data as given in patent US6375942B1, “Skin healing ointment” (priority 1999, dated 2002).

Tested on: severe persistent rash caused by poison ivy
Experiment: Case 1: ointment test on sufferer
Assay type: in vivo, Human
Settings: adult; prescribed by dermatologist
Description: They then sought out other sufferers on whom to test their ointment. The results follow:
Case 1: adult suffering from severe persistent rash caused by poison ivy. […] Application of ointment only once per day completely healed subject in 2½ days.

SMILES: CCCCC(=O)O[C@]1(C(=O)CO)[C@@H](C)C[C@H]2[C@@H]3CCC4=CC(=O)C=C[C@]4(C)[C@@]3(F)[C@@H](O)C[C@@]21C [valisone]
- outcome of prescribed treatment: without success
